Key:
Experiment in all cases: relative viability (nuclei count vs DMSO), 5 days (fraction); higher = more cells survive
CUDC-101 + Navitoclax = compound: C#Cc1cccc(Nc2ncnc3cc(OC)c(OCCCCCCC(=O)NO)cc23)c1 [CUDC-101] + CC1(C)CCC(c2ccc(Cl)cc2)=C(CN2CCN(c3ccc(C(=O)NS(=O)(=O)c4ccc(N[C@H](CCN5CCOCC5)CSc5ccccc5)c(S(=O)(=O)C(F)(F)F)c4)cc3)CC2)C1 [Navitoclax] (partner 0.5 µM)
Procedure, shortened: (§1)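 Lung cancer cell lines were pin-tool dosed in 1536-well plates on the day after seeding, with either a lone drug or a fixed anchor-drug dose plus five library-drug doses (not always all listed) in √10 steps. Nuclei were counted on 4× images after 5 days. Relative viability is the ratio of treated-well to vehicle-well nuclei counts, with each value a median of duplicate plates.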

NVP-TAE684 + Dasatinib = compound: COc1cc(N2CCC(N3CCN(C)CC3)CC2)ccc1Nc1ncc(Cl)c(Nc2ccccc2S(=O)(=O)C(C)C)n1 [NVP-TAE684] + Cc1nc(Nc2ncc(C(=O)Nc3c(C)cccc3Cl)s2)cc(N2CCN(CCO)CC2)n1 [Dasatinib] (partner 0.075 µM)
Procedure, shortened: as §1

[1] = compound: C1=CC=C2C(=C1)N=C(S2)C(C#N)C3=NC(=NC=C3)NCCC4=CN=CC=C4 + CC(=O)c1c(C)c2cnc(Nc3ccc(N4CCNCC4)cn3)nc2n(C2CCCC2)c1=O [Palbociclib] (partner 0.5 µM)
Procedure, shortened: as §1

[2] = compound: C1=CC=C2C(=C1)N=C(S2)C(C#N)C3=NC(=NC=C3)NCCC4=CN=CC=C4 + C[C@]1(O)C[C@@H](c2nc(-c3ccc4ccc(-c5ccccc5)nc4c3)c3c(N)nccn32)C1 [Linsitinib] (partner 1 µM)
Procedure, shortened: as §1

Cell Line	relative viability (CUDC-101 + Navitoclax; first compound 0.01 µM)	relative viability (CUDC-101 + Navitoclax; first compound 0.03162 µM)	relative viability (CUDC-101 + Navitoclax; first compound 0.1 µM)	relative viability (CUDC-101 + Navitoclax; first compound 0.3162 µM)	relative viability (CUDC-101 + Navitoclax; first compound 1 µM)	relative viability (NVP-TAE684 + Dasatinib; first compound 0.2 µM)	relative viability (NVP-TAE684 + Dasatinib; first compound 0.6325 µM)	relative viability (NVP-TAE684 + Dasatinib; first compound 2 µM)	relative viability ([1]; first compound 0.005 µM)	relative viability ([1]; first compound 0.01581 µM)	relative viability ([1]; first compound 0.05 µM)	relative viability ([1]; first compound 0.1581 µM)	relative viability ([1]; first compound 0.5 µM)	relative viability ([2]; first compound 0.005 µM)	relative viability ([2]; first compound 0.01581 µM)	relative viability ([2]; first compound 0.05 µM)	relative viability ([2]; first compound 0.1581 µM)	relative viability ([2]; first compound 0.5 µM)
NCI-H838	1.23	1.1	1.3	1.21	0.985	0.295	0.23	0.238	0.223	0.211	0.216	0.214	0.213	0.713	1.08	0.957	1.03	0.874
NCI-H1355	1.01	0.735	0.939	0.825	0.73	0.673	0.534	0.372	0.662	0.431	0.394	0.412	0.364	0.764	0.849	0.847	1.05	0.714
NCI-H1395	1.26	1.13	1.46	1.75	0.991	0.408	0.387	0.317	0.616		0.524	0.726	0.601	1.07		0.978	1.07	1.29
NCI-H1437	1.13	1.07	1.22	1.16	0.931	0.363	0.272	0.128	0.372	0.329	0.327	0.312	0.304	0.789	1.23	1.09	1.11	0.692
NCI-H1651	1.13	0.938	1.22	1.04	0.887	0.326	0.321	0.146	0.473	0.518	0.535	0.539	0.504	0.695	0.846	1	1.18	0.921
NCI-H1666	1.07	0.796	1	1.04	0.548	0.813	0.708	0.46	0.64	0.654	0.632	0.631	0.657	0.81	0.846	0.722	0.91	0.766
NCI-H1734	0.959	0.82	0.917	0.911	0.501	0.47	0.362	0.194	0.303	0.313	0.307	0.355	0.33	0.779	0.939	0.881	0.946	0.797
NCI-H1755	0.984	1.01	0.995	1.02	0.951	0.333	0.276	0.0732	0.431	0.44	0.481	0.5	0.644	0.968	1.05	0.976	1.07	0.908
NCI-H1792	0.586	0.636	0.56	0.625	0.582	0.623	0.76	0.25	0.473	0.732	0.622	0.995	0.474		0.711	0.537	0.495	0.39

From the supplement of paper PMC10307832
